Experimental data from patent US12054461B2, “Sulfonylurea derivatives and uses thereof” (NodThera Limited, priority 2019, dated 2024).

Legend:
[1] = system: IL-1β release upon NLRP3 activation in peripheral blood mononuclear cells (PBMC); experiment: PBMC IC50 determination assay; format: cell-based; conditions: sodium salts tested, LPS 1 μg/ml 3 h, compound 30 min, ATP 5 mM 1 h, IL-1β by HTRF
Method: The compounds of the present disclosure were tested for their inhibitory activity against IL-1β release upon NLRP3 activation in peripheral blood mononuclear cells (PBMC).
PBMC were isolated from buffy coats by density gradient centrifugation on Histopaque-1077 (Sigma, cat no. 10771). Isolated cells were seeded into the wells (280,000 cells/well) of a 96-well plate and incubated for 3 h with lipopolysaccharide (LPS, 1 μg/ml diluted 1000× from a 1 mg/ml stock solution). The compounds of the present disclosure were added (a single compound per well) and the cells were incubated for 30 min. Next, the cells were stimulated with ATP (5 mM final concentration diluted 20× from a 100 mM stock solution) for 1 h and the cell culture media from the wells were collected for further analysis.
(§1) The release of IL-1β into the media was determined by quantitative detection of IL-1β in the media using HTRF®, CisBio cat. No. 62HIL1BPEH. Briefly, cell culture supernatant were dispensed directly into the assay plate containing antibodies labelled with the HTRF® donor and acceptor. A microplate spectrophotometer (BMG) was used to detect signals at 655 nm and 620 nm. The detection range of IL-1β HTRF® was 39-6500 pg/ml.

[2] = system: IL-1β release upon NLRP3 activation in human whole blood; experiment: Whole blood (WB) assay; format: cell-based; conditions: sodium salts tested, LPS 1 μg/ml 3 h, compound 30 min, ATP 5 mM 1 h, IL-1β by HTRF
Method: The compounds of the present disclosure were tested for their inhibitory activity against IL-1β release upon NLRP3 activation in human whole blood.
Whole blood was drawn from single healthy donors and treated with sodium heparin anticoagulant. Blood was diluted with cell culture media at a 9:5 ratio, seeded in a 96-well plate and incubated for 3 h with lipopolysaccharide (LPS, 1 μg/ml final concentration diluted 1000× from a 1 mg/ml stock solution). The compounds of the present disclosure were added (a single compound concentration per well) and the blood was incubated for 30 min. Next, the blood was stimulated with ATP (5 mM final concentration diluted 20× from a 100 mM stock solution) for 1 h and the cell culture media from the wells were collected for further analysis.
as §1, with “were diluted as appropriate to bring IL-1β levels within the HTRF® detection range (36-6500 pg/ml) and subsequently” for “were”, “dispensed” for “dispensed directly”, “nm.” for “nm. The detection range of IL-1β HTRF® was 39-6500 pg/ml.”

Row | SMILES | IC50 [2] | IC50 [1]
1 | CN(C)C1CC(N(c2cnn(C)c2)S(=O)(=O)NC(=O)Nc2c3c(cc4c2CCC4)CCC3)C1 (stereo not shown) [Compound 6, 3-{[3-(Dimethylamino)cyclobutyl](1-methyl-1H-pyrazol-4-yl)sulfamoyl}-1-(1,2,3,5,6,7-hexahydro-s-indacen-4-yl)urea] | 1000 to 3000 nM | < 100 nM
2 | CC(C)n1cc(N(CCN(C)C)S(=O)(=O)NC(=O)Nc2c3c(cc4c2CCC4)CCC3)cn1 [Compound 9, 1-{[2-(Dimethylamino)ethyl][1-(propan-2-yl)-1H-pyrazol-4-yl]sulfamoyl}-3-(1,2,3,5,6,7-hexahydro-s-indacen-4-yl)urea] | < 1000 nM | < 100 nM
3 | COCC(COC)N(c1cnn(C)c1)S(=O)(=O)NC(=O)Nc1c2c(cc3c1CCC3)CCC2 [Compound 2, 3-[(1,3-Dimethoxypropan-2-yl)(1-methyl-1H-pyrazol-4-yl)sulfamoyl]-1-(1,2,3,5,6,7-hexahydro-s-indacen-4-yl)urea] | 1000 to 3000 nM | 100 to 500 nM
4 | CN(C)C1CCC(N(c2cnn(C)c2)S(=O)(=O)NC(=O)Nc2c3c(cc4c2CCC4)CCC3)C1 (stereo not shown) [Compound 5, 1-{[3-(Dimethylamino)cyclopentyl](1-methyl-1H-pyrazol-4-yl)sulfamoyl}-3-(1,2,3,5,6,7-hexahydro-s-indacen-4-yl)urea] | 3000 to 10000 nM | 100 to 500 nM
5 | CN(CCN(c1cnn(C)c1)S(=O)(=O)NC(=O)Nc1c2c(cc3c1CCC3)CCC2)C1COC1 [Compound 11, 1-(1,2,3,5,6,7-Hexahydro-s-indacen-4-yl)-3-({2-[methyl(oxetan-3-yl)amino]-ethyl}(1-methyl-1H-pyrazol-4-yl)sulfamoyl)urea] | 1000 to 3000 nM | < 100 nM

Now from value to compound, other results behind:

Row | IC50 [2] | SMILES | IC50 [1]
6 | 1000 to 3000 nM | COCCN(c1cnn(C)c1)S(=O)(=O)NC(=O)Nc1c2c(cc3c1CCC3)CCC2 [Compound 1, 1-(1,2,3,5,6,7-Hexahydro-s-indacen-4-yl)-3-[(2-methoxyethyl)(1-methyl-1H-pyrazol-4-yl)sulfamoyl]urea] | < 100 nM
7 | 3000 to 10000 nM | COCCCN(c1cnn(C)c1)S(=O)(=O)NC(=O)Nc1c2c(cc3c1CCC3)CCC2 [Compound 7, 1-(1,2,3,5,6,7-Hexahydro-s-indacen-4-yl)-3-[(3-methoxypropyl)(1-methyl-1H-pyrazol-4-yl)sulfamoyl]urea] | 100 to 500 nM
8 | 1000 to 3000 nM | Cn1cc(N(CC(C)(C)O)S(=O)(=O)NC(=O)Nc2c3c(cc4c2CCC4)CCC3)cn1 [Compound 3, 1-(1,2,3,5,6,7-Hexahydro-s-indacen-4-yl)-3-[(2-hydroxy-2-methylpropyl)(1-methyl-1H-pyrazol-4-yl)sulfamoyl]urea] | 100 to 500 nM
9 | < 1000 nM | CN(C)CCN(c1cnn(C)c1)S(=O)(=O)NC(=O)Nc1c2c(cc3c1CCC3)CCC2 [Compound 8, 3-{[2-(Dimethylamino)ethyl](1-methyl-1H-pyrazol-4-yl)sulfamoyl}-1-(1,2,3,5,6,7-hexahydro-s-indacen-4-yl)urea] | < 100 nM
10 | 1000 to 3000 nM | Cn1cc(N(CCC(C)(C)O)S(=O)(=O)NC(=O)Nc2c3c(cc4c2CCC4)CCC3)cn1 [Compound 4, 1-(1,2,3,5,6,7-Hexahydro-s-indacen-4-yl)-3-[(3-hydroxy-3-methylbutyl)(1-methyl-1H-pyrazol-4-yl)sulfamoyl]urea] | < 100 nM
11 | 10000 to 20000 nM | CN(C)CCCN(c1cnn(C)c1)S(=O)(=O)NC(=O)Nc1c2c(cc3c1CCC3)CCC2 [Compound 10, 3-{[3-(Dimethylamino)propyl](1-methyl-1H-pyrazol-4-yl)sulfamoyl}-1-(1,2,3,5,6,7-hexahydro-s-indacen-4-yl)urea] | 100 to 500 nM
